Experimental data as given in ChEMBL document CHEMBL4627373, “Antitubercular Ilamycins from Marine-Derived Streptomyces atratus SCSIO ZH16 ΔilaR” (J Nat Prod, 2020).
pIC50: −log10 of the molar value. *1 amine or outer side, *2 acyl side, *3 side chain or, on linkers, in order; H or OH if unused. Where a SMILES comes first, the peptide text is derived from it. [ ]: non-standard residue; d: D form. Trp(1-(1,1-Me2-allyl)) = C=CC(C)(C)n1cc(C[C@H](N)C(=O)O)c2ccccc21; X6 = C=C[C@](C)(CO)n1cc(C[C@H](N[*:1])C(=O)[*:2])c2ccccc21; Tyr(3-NO2) = N[C@@H](Cc1ccc(O)c([N+](=O)[O-])c1)C(=O)O; X7 = CN([C@@H](C[C@@](C)(O)C(=O)O)C(=O)[*:2])[*:1]; X2 = CN([C@@H](C[C@H](CO)C(=O)O)C(=O)[*:2])[*:1]; X4 = C[C@H](C[C@@H](C(=O)[*:2])N(C)[*:1])C(=O)O; X1 = CN([C@@H](C[C@@](C)(O)CO)C(=O)[*:2])[*:1]; X5 = O=CNc1cc(C[C@H](N[*:1])C(=O)[*:2])ccc1O; X3 = CN([C@@H](CC(CO)CO)C(=O)[*:2])[*:1]; Gly(E-crotyl) = C/C=C/C[C@H](N)C(=O)O; NMeMet(O) = CN[C@@H](CCS(C)=O)C(=O)O; NMeL = CN[C@@H](CC(C)C)C(=O)O

Experiments:
[1] = tested on: HepG2; experiment: Cytotoxicity against human HepG2 cells assessed as reduction in cell viability after 24 hrs by CCK8 assay; format: functional, cell-based; details: HepG2, 24 h
[2] = Cytotoxicity against human HUVEC12 cells assessed as reduction in cell viability after 24 hrs by CCK8 assay; format: cell-based
[3] = tested on: RKO; experiment: Cytotoxicity against human RKO cells assessed as reduction in cell viability after 24 hrs by CCK8 assay; format: functional, cell-based
[4] = tested on: Mycobacterium tuberculosis; experiment: Antitubercular activity against Mycobacterium tuberculosis H37Rv assessed as reduction in microbial growth by broth dilution method; format: functional
[5] = tested on: HeLa; experiment: Cytotoxicity against human HeLa cells assessed as reduction in cell viability after 24 hrs by CCK8 assay; format: functional, cell-based
[6] = tested on: L02; experiment: Cytotoxicity against human LO2 cells assessed as reduction in cell viability after 24 hrs by CCK8 assay; format: cell-based; details: L02, 24 h
[7] = tested on: MCF7; experiment: Cytotoxicity against human MCF7 cells assessed as reduction in cell viability after 24 hrs by CCK8 assay; format: functional, cell-based; details: MCF7, 24 h
[8] = tested on: A549; experiment: Cytotoxicity against human A549 cells assessed as reduction in cell viability after 24 hrs by CCK8 assay; format: functional, cell-based; details: A549, 24 h

SMILES | pIC50 [1] | pIC50 [2] | pIC50 [3] | MIC [4] | pIC50 [5] | pIC50 [6] | pIC50 [7] | pIC50 [8]
C=CC(C)(C)n1cc(C[C@@H]2NC(=O)[C@H](C/C=C/C)NC(=O)[C@H](CC(C)C)NC(=O)[C@H](C[C@H](CO)C(=O)O)N(C)C(=O)[C@H](C)NC(=O)[C@H](Cc3ccc(O)c([N+](=O)[O-])c3)NC(=O)[C@H](CC(C)C)N(C)C2=O)c2ccccc21 (cyclo(A[X2]L[Gly(E-crotyl)][Trp(1-(1,1-Me2-allyl))][NMeL][Tyr(3-NO2)])) | < 4.30 | < 4.30 | < 4.30 | 9.5 µM | < 4.30 | < 4.30 | < 4.30 | < 4.30
C=C[C@](C)(CO)n1cc(C[C@@H]2NC(=O)[C@H](C/C=C/C)NC(=O)[C@H](CC(C)C)NC(=O)[C@H](C[C@@H](C)C(=O)O)N(C)C(=O)[C@H](C)NC(=O)[C@H](Cc3ccc(O)c([N+](=O)[O-])c3)NC(=O)[C@H](CC(C)C)N(C)C2=O)c2ccccc21 (cyclo(A[X4]L[Gly(E-crotyl)][X6][NMeL][Tyr(3-NO2)])) | < 4.30 | 4.32 | < 4.30 | 9.5 µM | 4.35 | 4.31 | < 4.30 | 4.52
C=CC(C)(C)n1cc(C[C@@H]2NC(=O)[C@H](C/C=C/C)NC(=O)[C@H](CC(C)C)N3C(=O)[C@H](C[C@@H](CO)[C@H]3O)N(C)C(=O)[C@H](C)NC(=O)[C@H](Cc3ccc(O)c([N+](=O)[O-])c3)NC(=O)[C@H](CC(C)C)N(C)C2=O)c2ccccc21 | 4.66 | 4.92 | 5.14 | 1.4 µM | 5.14 | 4.80 | 5.25 | 4.72
C=CC(C)(C)n1cc(C[C@@H]2NC(=O)[C@H](C/C=C/C)NC(=O)[C@H](CC(C)C)NC(=O)[C@H](C[C@@H](C)C(=O)O)N(C)C(=O)[C@H](C)NC(=O)[C@H](Cc3ccc(O)c([N+](=O)[O-])c3)NC(=O)[C@H](CC(C)C)N(C)C2=O)c2ccccc21 (cyclo(A[X4]L[Gly(E-crotyl)][Trp(1-(1,1-Me2-allyl))][NMeL][Tyr(3-NO2)])) | < 4.30 | < 4.30 | < 4.30 | 1.2 µM | < 4.30 | < 4.30 | < 4.30 | < 4.30
COc1cccc2c1C(=O)c1c(O)c3c(c(O)c1C2=O)C[C@@](O)(C(=O)CO)C[C@@H]3O[C@H]1C[C@H](N)[C@H](O)[C@H](C)O1 [DOXORUBICIN] | 6.10 | 5.40 | 6.52 | – | 6.30 | – | 6.40 | 6.15
CO[C@H]1/C=C/O[C@@]2(C)Oc3c(C)c(O)c4c(O)c(c(/C=N/N5CCN(C)CC5)c(O)c4c3C2=O)NC(=O)/C(C)=C\C=C\[C@H](C)[C@H](O)[C@@H](C)[C@@H](O)[C@@H](C)[C@H](OC(C)=O)[C@@H]1C [RIFAMPIN] | – | – | – | 0.3 µM | – | – | – | –
C=CC(C)(C)n1cc(C[C@@H]2NC(=O)[C@H](C/C=C/C)NC(=O)[C@H](CC(C)C)NC(=O)[C@H](C[C@@H](C)C(=O)O)N(C)C(=O)[C@H](C)NC(=O)[C@H](Cc3ccc(O)c(NC=O)c3)NC(=O)[C@H](CC(C)C)N(C)C2=O)c2ccccc21 (cyclo(A[X4]L[Gly(E-crotyl)][Trp(1-(1,1-Me2-allyl))][NMeL][X5])) | < 4.30 | < 4.30 | < 4.30 | 9.6 µM | < 4.30 | < 4.30 | < 4.30 | < 4.30
C=CC(C)(C)n1cc(C[C@@H]2NC(=O)[C@H](C/C=C/C)NC(=O)[C@H](CC(C)C)NC(=O)[C@H](C[C@@](C)(O)CO)N(C)C(=O)[C@H](C)NC(=O)[C@H](Cc3ccc(O)c([N+](=O)[O-])c3)NC(=O)[C@H](CC(C)C)N(C)C2=O)c2ccccc21 (cyclo(A[X1]L[Gly(E-crotyl)][Trp(1-(1,1-Me2-allyl))][NMeL][Tyr(3-NO2)])) | < 4.30 | < 4.30 | < 4.30 | 2.3 µM | 4.31 | < 4.30 | < 4.30 | < 4.30
C=C[C@](C)(CO)n1cc(C[C@@H]2NC(=O)[C@H](C/C=C/C)NC(=O)[C@H](CC(C)C)NC(=O)[C@H](C[C@@](C)(O)C(=O)O)N(C)C(=O)[C@H](C)NC(=O)[C@H](Cc3ccc(O)c([N+](=O)[O-])c3)NC(=O)[C@H](CC(C)C)N(C)C2=O)c2ccccc21 (cyclo(A[X7]L[Gly(E-crotyl)][X6][NMeL][Tyr(3-NO2)])) | < 4.30 | < 4.30 | < 4.30 | 0.24 µM | < 4.30 | < 4.30 | < 4.30 | < 4.30
C=CC(C)(C)n1cc(C[C@@H]2NC(=O)[C@H](C/C=C/C)NC(=O)[C@H](CC(C)C)NC(=O)[C@H](CC(CO)CO)N(C)C(=O)[C@H](C)NC(=O)[C@H](Cc3ccc(O)c([N+](=O)[O-])c3)NC(=O)[C@H](CC(C)C)N(C)C2=O)c2ccccc21 (cyclo(A[X3]L[Gly(E-crotyl)][Trp(1-(1,1-Me2-allyl))][NMeL][Tyr(3-NO2)])) | < 4.30 | < 4.30 | 4.39 | 1.2 µM | 4.77 | < 4.30 | 4.42 | < 4.30
C=CC(C)(C)n1cc(C[C@@H]2NC(=O)[C@H](C/C=C/C)NC(=O)[C@H](CC(C)C)NC(=O)[C@H](C[C@@H](C)C(=O)O)N(C)C(=O)[C@H](C)NC(=O)[C@H](Cc3ccc(O)cc3)NC(=O)[C@H](CC(C)C)N(C)C2=O)c2ccccc21 (cyclo(A[X4]L[Gly(E-crotyl)][Trp(1-(1,1-Me2-allyl))][NMeL]Y)) | < 4.30 | < 4.30 | < 4.30 | 10 µM | < 4.30 | < 4.30 | < 4.30 | < 4.30
C=C[C@](C)(CO)n1cc(C[C@@H]2NC(=O)[C@H](C/C=C/C)NC(=O)[C@H](CC(C)C)N3C(=O)[C@H](C[C@@](C)(O)[C@H]3O)N(C)C(=O)[C@H](C)NC(=O)[C@H](Cc3ccc(O)c([N+](=O)[O-])c3)NC(=O)[C@H](CC(C)C)N(C)C2=O)c2ccccc21 | < 4.30 | < 4.30 | 4.66 | 1.4 µM | 4.85 | 4.66 | 4.57 | < 4.30
C=CC(C)(C)n1cc(C[C@@H]2NC(=O)[C@H](C/C=C/C)NC(=O)[C@H](CC(C)C)N3C(=O)[C@H](C[C@H](C)[C@H]3O)N(C)C(=O)[C@H](C)NC(=O)[C@H](Cc3ccc(O)c([N+](=O)[O-])c3)NC(=O)[C@H](CC(C)C)N(C)C2=O)c2ccccc21 | 5.43 | 4.82 | 5.12 | 0.0098 µM | 5.51 | 5.00 | 5.51 | 5.37
C=CC(C)(C)n1cc(C[C@@H]2NC(=O)[C@H](C/C=C/C)NC(=O)[C@H](CC(C)C)N3C(=O)[C@H](C[C@H](C)[C@H]3OC)N(C)C(=O)[C@H](C)NC(=O)[C@H](Cc3cccc([N+](=O)[O-])c3)NC(=O)[C@H](CC(C)C)N(C)C2=O)c2ccccc21 | – | – | – | 1.2 µM | – | – | – | –
C=C[C@](C)(CO)n1cc(C[C@@H]2NC(=O)[C@H](C/C=C/C)NC(=O)[C@H](CC(C)C)N3C(=O)[C@H](C[C@H](C)[C@H]3O)N(C)C(=O)[C@H](C)NC(=O)[C@H](Cc3ccc(O)c([N+](=O)[O-])c3)NC(=O)[C@H](CC(C)C)N(C)C2=O)c2ccccc21 | < 4.30 | 4.33 | 4.72 | 0.0096 µM | 4.55 | 4.51 | 4.48 | 4.47
C=CC(C)(C)n1cc(C[C@@H]2NC(=O)[C@H](C/C=C/C)NC(=O)[C@H](CC(C)C)NC(=O)[C@H](CC[S+](C)[O-])N(C)C(=O)[C@H](C)NC(=O)[C@H](Cc3ccc(O)c([N+](=O)[O-])c3)NC(=O)[C@H](CC(C)C)N(C)C2=O)c2ccccc21 (some centres not stated) (cyclo(A[NMeMet(O)]L[Gly(E-crotyl)][Trp(1-(1,1-Me2-allyl))][NMeL][Tyr(3-NO2)])) | 4.54 | 4.55 | 4.43 | 1.4 µM | 4.85 | < 4.30 | 4.66 | 4.60
